According to article PMC4008364, “Alleviation of behavioral hypersensitivity in mouse models of inflammatory pain with two structurally different casein kinase 1 (CK1) inhibitors” (Molecular Pain, 2014):
Changes are numbered by the printed parent chain. Like-named read-outs stand apart in the source and are kept apart here. Values belong to the compound of their own block, whether it stands above or below them.

How the values were obtained:
human CK1α = target: T1, human CK1α (Homo sapiens, UniProt P48729); assay: In vitro kinase assay (QuickScout mobility shift assay), CK1α; format: biochemical
T1 construct: Full-length human CK1α, CK1γ1, CK1γ2, CK1γ3; GST (N); purchased Carna Biosciences, Inc; host or cells: baculovirus system (insect cells)
T1 sequence (P48729 whole entry): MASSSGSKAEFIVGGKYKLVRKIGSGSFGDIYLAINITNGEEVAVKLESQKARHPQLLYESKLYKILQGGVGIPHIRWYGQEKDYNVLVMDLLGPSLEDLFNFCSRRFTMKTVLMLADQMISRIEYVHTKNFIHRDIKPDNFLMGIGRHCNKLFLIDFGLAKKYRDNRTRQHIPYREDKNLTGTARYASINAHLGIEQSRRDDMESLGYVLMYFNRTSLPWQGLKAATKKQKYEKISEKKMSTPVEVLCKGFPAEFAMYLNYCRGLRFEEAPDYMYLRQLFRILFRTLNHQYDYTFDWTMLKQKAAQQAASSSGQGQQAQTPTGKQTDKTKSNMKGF
Text: (§1) […]; Carna Biosciences, Inc., Kobe, Japan). Detailed information on the assay condition is available on the website of Carna Biosciences (http://www.carnabio.com). Full-length human CK1α, CK1γ1, CK1γ2, CK1γ3 and catalytic domain of human CK1ϵ were expressed as N-terminal GST-fusion protein using baculovirus system, and purified by using glutathione sepharose chromatography. Catalytic domain of CK1δ was expressed as N-terminal GST-fusion protein in E. coli, and purified by using glutathione sepharose chromatography.

CK1δ [1] = target: T2, CK1δ (Homo sapiens, UniProt P48730); assay: In vitro kinase assay (QuickScout mobility shift assay), CK1δ; format: biochemical
T2 construct: Catalytic domain of CK1δ was expressed as N-terminal GST-fusion protein in E. coli; GST (N); purchased Carna Biosciences, Inc; host or cells: E. coli
T2 sequence (P48730 9-277 limits assumed): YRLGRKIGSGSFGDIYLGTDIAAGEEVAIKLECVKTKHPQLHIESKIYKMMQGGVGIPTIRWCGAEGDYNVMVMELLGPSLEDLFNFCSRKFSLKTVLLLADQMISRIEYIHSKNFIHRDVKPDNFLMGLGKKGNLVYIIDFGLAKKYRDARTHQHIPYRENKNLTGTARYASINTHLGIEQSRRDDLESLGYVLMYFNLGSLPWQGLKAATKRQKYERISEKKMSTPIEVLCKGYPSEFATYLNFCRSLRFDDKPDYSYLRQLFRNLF
Text: (§2) Detailed information on the assay condition is available on the website of Carna Biosciences (http://www.carnabio.com). Full-length human CK1α, CK1γ1, CK1γ2, CK1γ3 and catalytic domain of human CK1ϵ were expressed as N-terminal GST-fusion protein using baculovirus system, and purified by using glutathione sepharose chromatography. Catalytic domain of CK1δ was expressed as N-terminal GST-fusion protein in E. coli, and purified by using glutathione sepharose chromatography.

human CK1ϵ = target: T3, human CK1ϵ (Homo sapiens, UniProt P49674); assay: In vitro kinase assay (QuickScout mobility shift assay), CK1ϵ; format: biochemical; conditions: substrate peptide CKtide; ATP at Km 16 μM; average of duplicated experiments
T3 construct: catalytic domain of human CK1ϵ were expressed as N-terminal GST-fusion protein; GST (N); purchased Carna Biosciences, Inc; host or cells: baculovirus system (insect cells)
T3 sequence (P49674 9-277 limits assumed): T2 sequence (P48730 9-277 limits assumed) with T19A, D20N, A23S, I47F, T59S, R61K, A241S
Text: as §2

human CK1γ1 = target: T4, human CK1γ1 (Homo sapiens, UniProt Q9HCP0); assay: In vitro kinase assay (QuickScout mobility shift assay), CK1γ1; format: biochemical
T4 construct: Full-length human CK1α, CK1γ1, CK1γ2, CK1γ3; GST (N); purchased Carna Biosciences, Inc; host or cells: baculovirus system (insect cells)
T4 sequence (Q9HCP0 whole entry): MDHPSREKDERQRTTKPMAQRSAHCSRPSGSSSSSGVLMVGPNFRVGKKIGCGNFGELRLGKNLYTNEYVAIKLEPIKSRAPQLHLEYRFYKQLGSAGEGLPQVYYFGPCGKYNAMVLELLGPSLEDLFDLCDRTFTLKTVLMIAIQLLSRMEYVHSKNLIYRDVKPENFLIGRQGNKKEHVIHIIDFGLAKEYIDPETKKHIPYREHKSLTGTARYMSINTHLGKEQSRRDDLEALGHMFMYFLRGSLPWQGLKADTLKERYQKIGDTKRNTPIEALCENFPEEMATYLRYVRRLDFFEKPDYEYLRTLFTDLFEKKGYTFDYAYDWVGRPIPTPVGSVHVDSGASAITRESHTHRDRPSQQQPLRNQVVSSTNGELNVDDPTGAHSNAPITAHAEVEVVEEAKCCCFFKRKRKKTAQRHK
Text: as §1

human CK1γ2 = target: T5, human CK1γ2 (Homo sapiens, UniProt P78368); assay: In vitro kinase assay (QuickScout mobility shift assay), CK1γ2; format: biochemical
T5 construct: Full-length human CK1α, CK1γ1, CK1γ2, CK1γ3; GST (N); purchased Carna Biosciences, Inc; host or cells: baculovirus system (insect cells)
T5 sequence (P78368 whole entry): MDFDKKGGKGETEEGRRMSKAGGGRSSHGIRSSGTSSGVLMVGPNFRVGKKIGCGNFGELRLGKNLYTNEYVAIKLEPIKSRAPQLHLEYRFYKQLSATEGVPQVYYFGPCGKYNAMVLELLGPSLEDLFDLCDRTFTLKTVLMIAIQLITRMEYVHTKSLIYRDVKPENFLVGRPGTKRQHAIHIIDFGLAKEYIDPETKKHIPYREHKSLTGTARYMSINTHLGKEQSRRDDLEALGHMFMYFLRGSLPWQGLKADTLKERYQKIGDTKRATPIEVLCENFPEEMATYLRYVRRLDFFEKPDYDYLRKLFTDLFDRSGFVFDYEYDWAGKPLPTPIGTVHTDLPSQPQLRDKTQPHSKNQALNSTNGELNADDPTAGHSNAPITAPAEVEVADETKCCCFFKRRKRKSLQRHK
Text: as §2

human CK1γ3 = target: T6, human CK1γ3 (Homo sapiens, UniProt Q9Y6M4); assay: In vitro kinase assay (QuickScout mobility shift assay), CK1γ3; format: biochemical; conditions: substrate peptide CKtide; ATP at Km 3.2 μM; average of duplicated experiments
T6 construct: Full-length human CK1α, CK1γ1, CK1γ2, CK1γ3; GST (N); purchased Carna Biosciences, Inc; host or cells: baculovirus system (insect cells)
T6 sequence (Q9Y6M4 whole entry): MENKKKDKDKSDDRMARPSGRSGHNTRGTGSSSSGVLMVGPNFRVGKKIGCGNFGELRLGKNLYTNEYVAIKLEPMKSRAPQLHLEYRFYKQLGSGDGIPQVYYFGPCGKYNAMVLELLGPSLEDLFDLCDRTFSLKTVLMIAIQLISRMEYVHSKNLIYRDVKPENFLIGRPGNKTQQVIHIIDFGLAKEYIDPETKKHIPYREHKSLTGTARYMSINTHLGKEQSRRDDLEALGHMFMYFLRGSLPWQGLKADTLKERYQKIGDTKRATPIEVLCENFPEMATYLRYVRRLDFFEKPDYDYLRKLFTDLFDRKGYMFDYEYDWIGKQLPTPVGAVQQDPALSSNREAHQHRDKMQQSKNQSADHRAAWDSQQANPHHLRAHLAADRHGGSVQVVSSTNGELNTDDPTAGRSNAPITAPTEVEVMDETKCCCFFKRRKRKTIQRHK
Text: as §2

[2] = system: carrageenan-induced inflammatory pain in mice; assay: Carrageenan-induced acute inflammatory pain behaviors, intrathecal injection; format: in vivo, mouse; conditions: for withdrawal latency of the ipsilateral hind paw (thermal hyperalgesia), carrageenan / withdrawal threshold of the ipsilateral hind paw (mechanical allodynia), carrageenan: i.t., IC261 0.1-1 nmol, TG003 0.1-100 pmol
Experimental: (§3) Male C57BL/6 J mice (5 weeks old) were purchased from Clea Japan, Inc. (Tokyo, Japan) and housed under controlled temperature (24 ± 1°C) and humidity (55 ± 10%) with a 12-hour light-dark cycle with food and water freely available. The animal experiments were approved by the Animal Care Committees of Tokyo Medical and Dental University (approval No. 0090173) and Kagoshima University (approval No. MD10053), and were conducted in accordance with the ethical guidelines for the study of experimental pain in conscious animals published by the International Association of the Study of Pain (1995) and the European Communities Council Directive of 24 November, 1986 (86/609/EEC).
(§4) To produce acute and persistent inflammatory pain, carrageenan (2% lambda carrageenan in saline, 25 μl, Sigma, St. Louis, MO) and complete Freund’s adjuvant (CFA, 25 μl, Sigma) were injected into the plantar surface of the right hindpaw under light halothane anesthesia, respectively. Control mice were treated with saline or incomplete Freund’s adjuvant (IFA, Sigma), respectively. Mechanical allodynia and thermal hyperalgesia were measured using the Dynamic Plantar Aesthesiometer (Ugo Basile, Comerio VA, Italy) and the Paw Thermal Stimulator (UCSD, San Diego, CA, USA), respectively as described. In CFA model, these behavioral experiments were conducted 3 days after the injection. Intrathecal (i.t.) injection was given in a volume of 5 μl by percutaneous puncture through an intervertebral space at the level of the 5th or 6th lumbar vertebra, according to a previously reported procedure. An investigator, who was unaware of the drug treatment, performed all of the behavioral experiments.

[3] = system: CFA-induced inflammatory pain in mice; assay: CFA-induced persistent inflammatory pain behaviors, intrathecal injection; format: in vivo, mouse; conditions: for withdrawal latency of the ipsilateral hind paw (thermal hyperalgesia), CFA / withdrawal threshold of the ipsilateral hind paw (mechanical allodynia), CFA: i.t., IC261 0.1-1 nmol, TG003 0.1-100 pmol, 3 days after CFA
Experimental: as §3, §4

[4] = system: substantia gelatinosa neurons; assay: Whole-cell patch-clamp recording of sEPSCs in spinal cord slices; format: cell-based, mouse; conditions: for frequency and amplitude of sEPSCs, control mice: 1 μM superfusion, slices from control mice, holding potential -70 mV; for mean frequency of sEPSCs in inflammatory pain model mice: 1 μM, carrageenan- and CFA-inflamed mice
Experimental: (§5) Adult mouse spinal cord slices were prepared according to the method of Yoshimura & Jessell. Briefly, 6 hours after carrageenan or saline injection, and 3 days after CFA or IFA injection, transverse slices (thickness, 800-900 μm) of the L5 spinal segments with the L5 dorsal root attached were cut on a vibrating blade microtome. The slices were superfused with Krebs solution (10-15 ml/min) saturated with 95% O2 and 5% CO2 at 36 ± 1°C. The composition of Krebs solution was as follows (in mM): NaCl 117; KCl 3.6; NaHCO3 25; NaH2PO4 1.2; CaCl2 2.5; MgCl2 1.2, and glucose 11 (pH 7.4 after gas saturation).
Blind whole-cell patch-clamp recordings were made from the lamina II (substantia gelatinosa: SG) neurons ipsilateral to carrageenan, CFA, or vehicle (saline or IFA) injection in voltage clamp mode. Patch pipettes were fabricated from thin-walled, borosilicate, glass-capillary tubing (1.5 mm o.d., World Precision Instruments). After establishing the whole-cell configuration, neurons were held at the potential of -70 mV to record spontaneous excitatory postsynaptic currents (sEPSCs) and at the potential of 0 mV to record spontaneous inhibitory postsynaptic currents (sIPSC). Under these conditions, GABA- and glycine-mediated IPSCs and glutamate-mediated EPSCs, respectively, were negligible, because these holding potential were close to the reversal potentials of IPSCs and EPSCs, respectively. Recording electrodes were filled with either potassium gluconate-based solution (in mM: K-gluconate 135; KCl 5; CaCl2 0.5; MgCl2 2; EGTA 5; HEPES 5; ATP-Mg 5; adjusted with KOH to pH 7.2) to investigate EPSCs, or Cs-based solution (in mM: Cs2SO4 110; tetraethylammonium 5; CaCl2 0.5; MgCl2 2; EGTA 5; HEPES 5; ATP-Mg 5; adjusted with CsOH to pH 7.2) to examine IPSCs. The resistance of a typical patch pipette is 5-10 MΩ. Membrane currents were amplified with an Axopatch 200B amplifier (Molecular Devices, Sunnyvale, CA, USA) in voltage-clamp mode. Signals were low-pass filtered at 5 kHz and digitized at 333 kHz with an A/D converter (Digidata 1322, Molecular Devices). Data were stored with a personal computer using pCLAMP10 software and analyzed with Mini Analysis software (Synaptosoft Inc., Decatur, GA, USA).
(§6) The average values of both frequency and amplitude of sEPSCs or sIPSCs during the control (1 min) and 5-10 min after the drug application (1 min period after the attainment of steady effect of each drug) were calculated and quantified as relative changes in frequency and amplitude.

[5] = system: substantia gelatinosa neurons; assay: Whole-cell patch-clamp recording of sIPSCs in spinal cord slices; format: cell-based, mouse; conditions: 1 μM, holding potential 0 mV
Experimental: as §5
Blind whole-cell patch-clamp recordings were made from the lamina II (substantia gelatinosa: SG) neurons ipsilateral to carrageenan, CFA, or vehicle (saline or IFA) injection in voltage clamp mode. Patch pipettes were fabricated from thin-walled, borosilicate, glass-capillary tubing (1.5 mm o.d., World Precision Instruments). […] Data were stored with a personal computer using pCLAMP10 software and analyzed with Mini Analysis software (Synaptosoft Inc., Decatur, GA, USA).
as §6

CK1ϵ = target: T7, CK1ϵ (Homo sapiens, UniProt P49674); assay: PER3 nuclear translocation assay, HEK293 cells expressing CK1ϵ; format: cell-based; conditions: 1 hour pre-incubation, 8 hours doxycycline
T7 construct: F2A peptide (self-cleaving link to EGFP; its remnant stays on the CK1 C-terminus) (C); expressed in transfected cells; co-expressing mCherry-PER3
T7 sequence (P49674 whole entry): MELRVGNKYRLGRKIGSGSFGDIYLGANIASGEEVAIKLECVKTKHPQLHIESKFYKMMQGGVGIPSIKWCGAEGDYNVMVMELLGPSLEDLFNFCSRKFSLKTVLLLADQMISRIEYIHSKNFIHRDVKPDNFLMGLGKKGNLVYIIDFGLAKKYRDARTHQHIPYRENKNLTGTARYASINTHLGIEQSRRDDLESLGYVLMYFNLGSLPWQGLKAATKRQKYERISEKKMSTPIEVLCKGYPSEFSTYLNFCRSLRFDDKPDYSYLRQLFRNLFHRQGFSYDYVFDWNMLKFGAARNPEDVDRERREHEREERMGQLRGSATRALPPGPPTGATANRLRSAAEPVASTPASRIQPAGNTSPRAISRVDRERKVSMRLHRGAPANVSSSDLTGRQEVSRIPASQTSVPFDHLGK

Clk1 = system: Clk1; set-up: method as in PMID 15010457; conditions: range given for Clk1 and 4 isoforms together; read-out: IC50 against Clk1; cited from earlier work
CK1δ [6] = target: CK1δ (Homo sapiens, UniProt P48730); assay: PER3 nuclear translocation assay, HEK293 cells expressing CK1δ; conditions: 30 μM, 1 hour pre-incubation, 8 hours doxycycline

Compound: COc1cc(OC)c(C=C2C(O)=Nc3ccccc32)c(OC)c1 [IC261]
IC50 (human CK1α): 190 nM
IC50 (CK1δ [1]): 600 nM
IC50 (human CK1ϵ): 860 nM
IC50 (human CK1γ1): > 30000 nM
IC50 (human CK1γ2): > 30 µM
IC50 (human CK1γ3): > 30 µM
withdrawal latency of the ipsilateral hind paw (thermal hyperalgesia), carrageenan [2]: dose-dependently increased
withdrawal threshold of the ipsilateral hind paw (mechanical allodynia), carrageenan [2]: dose-dependently increased
development of thermal hyperalgesia induced by carrageenan ([2]; spinal preemptive treatment, i.t. 30 min before carrageenan): dose-dependently attenuated
withdrawal latency of the ipsilateral hind paw (thermal hyperalgesia), CFA [3]: dose-dependently increased
withdrawal threshold of the ipsilateral hind paw (mechanical allodynia), CFA [3]: dose-dependently increased
frequency and amplitude of sEPSCs, control mice [4]: altered neither the frequency nor the amplitude of sEPSCs
mean frequency of sEPSCs in inflammatory pain model mice [4]: decreased
sIPSCs from the inflamed mice ([5]; carrageenan- and CFA-inflamed mice): did not affect sIPSCs
mean amplitude of control sIPSCs ([5]; control mice): slight but significant reduction

CK1ϵ-induced nuclear translocation of mCherry-PER3 (CK1ϵ; 1 μM): also inhibited the nuclear translocation
Compound: Nc1nccc(-c2c(-c3ccc(F)cc3)ncn2C2CCCCC2)n1 [PF-670462]

Compound: CCN1/C(=C/C(C)=O)Sc2ccc(OC)cc21 [TG003]
IC50 (human CK1α; substrate peptide CKtide, ATP at Km 4.1 μM, average of duplicated experiments, read-out: IC50 on the kinase activity of CK1α): 330 nM
IC50 (human CK1γ1; substrate peptide CKtide, ATP at Km 6.3 μM, average of duplicated experiments, read-out: IC50 on the kinase activity of CK1γ1): 1500 nM
CK1ϵ-induced nuclear translocation of mCherry-PER3 (CK1ϵ; 30 μM): inhibited the nuclear translocation of mCherry-PER3
withdrawal latency of the ipsilateral hind paw (thermal hyperalgesia), carrageenan [2]: dose-dependently increased
withdrawal threshold of the ipsilateral hind paw (mechanical allodynia), carrageenan [2]: dose-dependently increased
CFA-induced mechanical allodynia ([3]; 1 pmol i.t.): significantly reversed
CFA-induced thermal hyperalgesia ([3]; 1 pmol i.t.): did not affect
withdrawal latency of the ipsilateral hind paw (thermal hyperalgesia), CFA [3]: dose-dependently increased
withdrawal threshold of the ipsilateral hind paw (mechanical allodynia), CFA [3]: dose-dependently increased
frequency and amplitude of sEPSCs, control mice [4]: altered neither the frequency nor the amplitude of sEPSCs
mean frequency of sEPSCs in inflammatory pain model mice [4]: decreased
CK1δ-induced nuclear translocation of mCherry-PER3 (CK1δ [6]): inhibited the nuclear translocation of mCherry-PER3
